Where “and” joins values, the source holds several entries; their conditions need not be identical. Equal values may be shown once. Entries after “also recorded” stand apart in the source; their conditions may differ. Where a name gives a salt, the structure may show the parent alone. Marks after values point to notes of the source that are not given here.
Tests used:
[1] = Solubility in water (treatment of samples)
[2] = test system: Convulsion Induced by Pentylenetetrazole (PTZ); assay: Convulsion induced by pentylenetetrazole (PTZ), compounds by gastric lavage, C57BL/6J mice; format: in vivo; details: 30 mg/kg gastric lavage; for Latency period of clonus / Latency period of whole-body tonic seizures / Mortality rate / Incidence rate of convulsion: PTZ 80 mg/kg s.c. 1 h later; for Incidence rate of convulsion: observed 60 min; for anti-convulsive effect (in words): PTZ-induced convulsion
Procedure: The compounds to be tested were administrated to animals by gastric lavage (30 mg/kg); one hour later, pentylenetetrazole was administrated by subcutaneous injection (PTZ 80 mg/kg); and response of animals were observed within a period of 60 min.

KCNQ channels = assay: Whole-cell voltage-clamp electrophysiological recording in CHO cells transfected with KCNQ channels; format: cell-based; details: for I/I0: activation multiple, maximum induced current at −10 mV testing voltage after administration (10 μM) vs before, >1 activating, <1 inhibiting; for ΔV1/2: shift of V1/2 of current activation curve, negative sign = left-ward shift, CHO cells
Procedure: The formulation of culture fluid for Chinese hamster […] (CHO) (Culture Collection of Chinese Academy of Sciences): 50/50 DMEM/F-12 (Cellgro, Mamassas, Va.), 10% fetal bovine serum (FBS) (Gibco, Australia) and 2 mM […] (Invitrogen). […] Lipofectamine2000™ agent (Invitrogen) was used for Transfection according to the protocol thereof. […] After cotransfection with GFP (green fluorescent protein), transfected cells could be determined under a fluorescence microscopy.
Whole-cell voltage-clamp recording was performed by using Axopatch-200B amplifier (Molecular Devices, Sunnyvale, Calif.) at room temperature. Borosilicate glass capillary tubes (World Precision Instruments, Sarasota, Fla.) were drawn into electrodes. The electric resistance of the electrodes filled with an intracellular fluid is 3 to 5 MΩ. […] During the recording, an extracellular fluid was continuously perfused by using a BPS perfusion system (ALA Scientific Instruments, Westburg, N.Y.). The formulation of the extracellular fluid was as follows: 140 mM NaCl, 5 mM KCl, 2 mM CaCl2, 1.5 mM MgCl2, 10 mM HEPES and 10 mM glucose (the pH value of the extracellular fluid was adjusted to 7.4 with NaOH). […] Resistors were connected in series to compensate 60 to 80% of signal loss. At present, multivoltage scheme was generally adopted, wherein the clamp voltage was set at −100 mV. Current was induced in cells by a series of 2000 ms stimulating voltage (from −90 mV up to +50 mV, with interval of 10 mV).
In the following table, V1/2 is the voltage at which 50% of cells were activated, ΔV1/2 is amount of a left-ward shift of V1/2, negative sign (−) represents a left-ward shift of the current activation curve and positive sign (+) represents a right-ward shift of the curve. I/I0 is the activation multiple, wherein, I0 is the maximum induced current produced under stimulation of −10 mV testing voltage, I is the maximum induced current produced under stimulation of −10 mV testing voltage after administration (10 μM), I/I0>1 represents activating activity, and I/I0<1 represents inhibiting activity. N is the number of tested cells. NT represents non-tested.

in vivo = details: mouse, 20 mg/kg
Procedure: Two hours after administration, animal were fed uniformly. Specific arrangement was as following table.
After administration by gastric lavage or intravenous injection, mice were sacrificed by cutting abdominal aorta at time points set as the above with 3 mice for each time point. 0.5 mL of whole blood was collected for each animal, placed into a heparinized test tube and subjected to centrifugation at 3000 rpm to separate plasma, which was then cryopreserved in a −20° C. refrigerator. After the animals were sacrificed, their whole brain was collected, washed with ice-cooled physiological saline to remove residual blood. Then the residual liquid was absorbed to dryness. The treated brain was labeled and cryopreserved in a −20° C. refrigerator.

[3] = test system: Animal Models Induced by PTZ (Pentylenetetrazole); assay: PTZ test, compounds by intraperitoneal injection, KM mice; format: in vivo; details: for Incidence rate of convulsion: PTZ 100 mg/kg s.c. 30 min later, observation 1 h
Procedure: Compounds to be tested were administrated by intraperitoneal injection (10 mg/kg, 5 mg/kg, 2.5 mg/kg, 0.1 ml/10 g).

[4] = test system: Animal Models Induced by MES; assay: MES test, compounds orally administrated (gastric lavage), KM mice; format: in vivo; details: for Incidence rate of convulsion / Protection rate of compounds: 30 mg/kg gastric lavage, MES 1 hour later; for effect in MES test (in words): gastric lavage
Procedure: (§1) One time of electrical stimulation was applied to animals through ear clip electrodes, and a convulsion characterized by a tonic hind limb extension was observed. One day before the test, animals were screened in the above procedure to record the values of MES.
1 hour later, MES was applied according to parameters set the last day, and response of animals were observed and recorded immediately.

[5] = test system: Animal Models Induced by PTZ; assay: PTZ test, compounds orally administrated (gastric lavage), KM mice; details: for Incidence of tonic fore limb extension / Incidence of tonic hind limb extension / Latency period of clonus / Latency period of fore limb extension / Mortality rate / Incidence rate of clonus: 30 mg/kg gastric lavage; for Incidence rate of clonus: PTZ 100 mg/kg s.c. 1 h later, observation 1 h; for effect in PTZ test (in words): gastric lavage
Procedure: Response of animals were observed immediately and recorded within a period of 1 h.

[6] = test system: Animal Models Induced by MES (Maximum Electroshock); assay: MES test, compounds by intraperitoneal injection, KM mice; format: in vivo; details: 10 mg/kg i.p.; for Mortality rate / Incidence of convulsion: MES 30 min later; for Incidence of convulsion: tonic hind limb extension
Description: as §1

C#CCN(Cc1ccc(F)cc1)c1ccc(NC(=O)OC)cc1 [Compound K9, methyl 4-(N-parafluorobenzyl-N-propargyl-imino)-aniline formate]
solubility in water (in words) [1]: can not be easily dissolved in water | Latency period of clonus [2]: 351 ± 84.3 s | Latency period of whole-body tonic seizures [2]: 1382 ± 339 s | Mortality rate [2]: 4/10 | Incidence rate of convulsion [2]: 4/10 | anti-convulsive effect (in words) [2]: comparable anti-convulsive effect | I/I0 (KCNQ channels): 3.27 ± 0.10 | ΔV1/2 (KCNQ channels): −24.21 ± 2.4 mV | Kp (in vivo; male, KM): 1.9 | bioavailability (in vivo; male, KM): 26% | AUC(0-t) (in vivo; male, KM, iv): 7180 ng·h/mL | Kp (in vivo; male, KM, iv): 1.5 | clearance (in vivo; male, KM, iv): 46.3 mL/min/kg | AUC(0-t) (in vivo; male, KM, po): 1860 ng·h/mL | Cmax (in vivo; male, KM, po): 2200 ng/mL and 4420 ng/g | half-life (in vivo; male, KM, po): ~1.2 h | area under the concentration-time curve (AUC0-t) in brain tissue (in vivo): 3565 ng·h/g | area under the concentration-time curve (AUC0-t) of brain tissue (in vivo; iv): 10694 ng·h/g

C#CCN(Cc1ccc(F)cc1)c1ccc(NC(=O)OCC)c(N)c1 [Compound K21, ethyl 2-amino-4-(N-parafluorobenzyl-N-propargyl-imino)-aniline formate]
solubility in water (in words) [1]: can not be easily dissolved in water | Incidence of tonic fore limb extension ([3]; 2.5 mg/kg i.p.): 2/10 | Incidence of tonic hind limb extension ([3]; 2.5 mg/kg i.p.): 0/10*** | Latency period of clonus ([3]; 2.5 mg/kg i.p.): 184 ± 42 s | Mortality rate ([3]; 2.5 mg/kg i.p.): 1/10** | Incidence rate of convulsion ([3]; 2.5 mg/kg i.p.): 9/10 | Incidence of tonic fore limb extension ([3]; 5 mg/kg i.p.): 3/10 | Incidence of tonic hind limb extension ([3]; 5 mg/kg i.p.): 0/10*** | Latency period of clonus ([3]; 5 mg/kg i.p.): 238 ± 54 s | Mortality rate ([3]; 5 mg/kg i.p.): 1/10** | Incidence rate of convulsion ([3]; 5 mg/kg i.p.): 10/10 | Incidence of tonic hind limb extension ([3]; 10 mg/kg i.p.): 0/12*** | Mortality rate ([3]; 10 mg/kg i.p.): 0/12*** | Incidence rate of convulsion ([3]; 10 mg/kg i.p.): 12/12 | sedative effect ([3]; intraperitoneal injection): some sedative effect | anti-convulsive effect compared with retigabine (in words) ([3]; intraperitoneal injection, same dosage, PTZ and MES tests): slightly stronger than that of retigabine | I/I0 (KCNQ channels): 1.53 ± 0.15 | ΔV1/2 (KCNQ channels): −47.9 ± 3.5 mV | Incidence rate of convulsion [4]: 2/13*** | Protection rate of compounds [4]: 84.6%*** | effect in MES test (in words) [4]: significantly inhibiting the incidence of the grand mal seizure | Incidence of tonic fore limb extension [5]: 5/12 | Incidence of tonic hind limb extension [5]: 0/12** | Latency period of clonus [5]: 148 ± 37 s | Latency period of fore limb extension [5]: 1561 ± 690 s | Mortality rate [5]: 3/12 | Incidence rate of clonus [5]: 12/12 | effect in PTZ test (in words) [5]: significantly inhibit tonic seizures | grand mal seizure in MES test (in words) [6]: completely avoided the grand mal seizure | Mortality rate [6]: 0 | Incidence of convulsion [6]: 2/10***

CCOC(=O)Nc1ccc(NCc2ccc(F)cc2)cc1N [Retigabine, retigabine, reference compound]
solubility in water (in words) [1]: can be easily dissolved in water | Latency period of clonus [2]: No typical | Latency period of whole-body tonic seizures [2]: 1472 ± 961 s | Mortality rate [2]: 4/10 | Incidence rate of convulsion [2]: 5/10 | anti-convulsive effect (in words) [2]: comparable anti-convulsive effect | behaviour of animals after administration ([2]; returned to normal after 20 min): quite and less active | Incidence of tonic fore limb extension ([3]; 2.5 mg/kg i.p.): 5/10 | Incidence of tonic hind limb extension ([3]; 2.5 mg/kg i.p.): 1/10** | Latency period of clonus ([3]; 2.5 mg/kg i.p.): 179 ± 60 s | Latency period of tonic hind limb ([3]; 2.5 mg/kg i.p.): 827 s | Mortality rate ([3]; 2.5 mg/kg i.p.): 7/10 | Incidence rate of convulsion ([3]; 2.5 mg/kg i.p.): 10/10 | Incidence of tonic fore limb extension ([3]; 5 mg/kg i.p.): 4/10 | Incidence of tonic hind limb extension ([3]; 5 mg/kg i.p.): 2/10* | Latency period of clonus ([3]; 5 mg/kg i.p.): 184 ± 40 s | Latency period of tonic hind limb ([3]; 5 mg/kg i.p.): 883 ± 151 s | Mortality rate ([3]; 5 mg/kg i.p.): 5/10 | Incidence rate of convulsion ([3]; 5 mg/kg i.p.): 10/10 | Incidence of tonic hind limb extension ([3]; 10 mg/kg i.p.): 4/12* | Latency period of clonus ([3]; 10 mg/kg i.p.): 239 ± 113 s | Latency period of tonic hind limb ([3]; 10 mg/kg i.p.): 1100 ± 319 s | Mortality rate ([3]; 10 mg/kg i.p.): 2/12** | Incidence rate of convulsion ([3]; 10 mg/kg i.p.): 10/10 | sedative effect ([3]; intraperitoneal injection): some sedative effect | Incidence rate of convulsion [4]: 5/13*** | Protection rate of compounds [4]: 61.5%*** | effect in MES test (in words) [4]: significantly inhibiting the incidence of the grand mal seizure; also recorded: comparable effect | Incidence of tonic fore limb extension [5]: 3/12** | Incidence of tonic hind limb extension [5]: 0/12** | Latency period of clonus [5]: 177 ± 70 s | Latency period of fore limb extension [5]: 1063 ± 284 s | Mortality rate [5]: 0/12** | Incidence rate of clonus [5]: 12/12 | effect in PTZ test (in words) [5]: obviously reduce the incidence rate of convulsion and mortality rate; also recorded: significantly reduce the incidence rate of convulsion and mortality rate | Mortality rate [6]: 0 | Incidence of convulsion [6]: 4/11**

From US9353048B2, “Compound as KCNQ potassium channel agonist, preparation method therefor and use thereof” (SHANGHAI INSTITUTE OF MATERIA MEDICA, CHINESE ACADEMY OF …, priority 2011, dated 2016)
